Experimental data: patent JP2011231022A, “イミダゾロン誘導体” (Ajinomoto Co Inc, priority 2010, dated 2011)
Like-named read-outs stand apart in the source and are kept apart here. One block for each compound: values may come before it.

Key:
[1] = system: eNOS serine 1177 residue (eNOSセリン1177残基); experiment: Phosphorylation of eNOS serine 1177 in isolated rat thoracic aorta rings (Examples 5 and 6); type: cell-based; settings: 5 min; for enhancement of eNOS serine 1177 phosphorylation: without wortmannin
[2] = system: Akt serine 473 residue (Aktセリン473残基); experiment: Phosphorylation of Akt serine 473 in isolated rat thoracic aorta rings (Examples 5 and 6); type: cell-based; settings: 5 min; for enhancement of Akt serine 473 phosphorylation: without wortmannin
[3] = system: rat isolated blood vessel, thoracic aorta ring (ラット摘出血管、大動脈リング); experiment: Vasorelaxation of phenylephrine-precontracted isolated rat thoracic aorta rings (Example 1, screening); type: cell-based; settings: 100 μM; 1 μM phenylephrine precontraction; endothelium intact
[4] = system: aorta ring (大動脈リング); experiment: Involvement of PI3K in relaxation of isolated rat aorta rings, wortmannin pretreatment (Example 4); type: cell-based; settings: for relaxation rate: wortmannin (WO) 200 nM, 15 min pretreatment
[5] = system: rat isolated blood vessel (ラット摘出血管); experiment: EC50 of vasorelaxation in phenylephrine-precontracted isolated rat aorta rings (Example 2); type: cell-based
[6] = system: aorta ring (大動脈リング); experiment: Endothelium-derived NO mechanism study in isolated rat aorta rings: endothelium removal and inhibitors (Example 3); type: cell-based; settings: for relaxation of phenylephrine contraction with C-PTIO: NO scavenger C-PTIO 300 μM; for relaxation of phenylephrine contraction with C-PTIO / relaxation of phenylephrine contraction with L-NAME / relaxation of phenylephrine contraction with indomethacin / relaxation of phenylephrine contraction with ODQ: 15 min pretreatment; for relaxation of phenylephrine contraction with L-NAME: NOS inhibitor L-NAME 100 μM; for vasorelaxing action after endothelium removal: aorta ring with endothelium mechanically removed; for relaxation of phenylephrine contraction with indomethacin: cyclooxygenase inhibitor indomethacin 10 μM; for relaxation of phenylephrine contraction with ODQ: soluble guanylate cyclase inhibitor ODQ 1 μM
[7] = Oral absorption in fasted male ICR mice, plasma concentration by LC/MS (Example 7); type: in vivo; settings: mouse (ICR male, fasted), 100 mg/kg oral
[8] = system: phenylephrine-induced hypertensive model rat (フェニレフリン昇圧モデルラット); experiment: Hypotensive action in phenylephrine-induced hypertensive model rats (Example 8); type: in vivo; settings: Wistar male rat; 40 mg/kg intravenous; phenylephrine 75 μg/kg/min
[9] = 100〜500 μM, wortmannin (WO) 200 nM, 20 min pretreatment
[10] = 100 μM or 300 μM, wortmannin (WO) pretreatment
[11] = concentration giving 50% relaxation of phenylephrine contraction, 1〜100 μM, logistic method, read-out: EC50

SMILES: CC1(CO)N=C(NCCC[C@H](N)C(=O)O)NC1=O (stereo partly shown) [I−2, Nδ−(5−メチル−5−ヒドロキシメチル−4−イミダゾロン−2−イル)−L−オルニチン]
- enhancement of eNOS serine 1177 phosphorylation ([1]; 100〜500 μM): 濃度依存的にeNOSセリン1177残基のリン酸化亢進作用を示した
- eNOS serine 1177 phosphorylation after wortmannin pretreatment [1, 9]: 完全に抑制された
- enhancement of Akt serine 473 phosphorylation ([2]; 100〜500 μM): Aktセリン473残基のリン酸化亢進作用を示した
- Akt serine 473 phosphorylation after wortmannin pretreatment [2, 9]: 完全に抑制され

SMILES: N=C(N)NCCC[C@H](NCC(=O)[C@@H](O)[C@H](O)[C@H](O)CO)C(=O)O [フラクトシルアルギニン]
- vasodilating action (relaxation of phenylephrine contraction) [3]: 血管拡張作用が見出せなかった

SMILES: N=C(N)NCCC[C@H](N)C(=O)O [L−アルギニン]
- vasodilating action (relaxation of phenylephrine contraction) [3]: 血管拡張作用が見出せなかった

SMILES: CC1N=C(NCCC[C@H](N)C(=O)O)NC1=O (stereo partly shown) [I−1, Nδ−(5−ヒドロ−5−メチル−4−イミダゾロン−2−イル)−L−オルニチン]
- relaxation rate ([4]; 50 μM): 10±3%
- inhibition at 50 µM ([4]; Rattus norvegicus, read-out: relaxation rate): 93 ± 3%
- EC50 [5]: 13 µM
- relaxation of phenylephrine contraction with C-PTIO [6]: 血管の弛緩が大幅に減弱した
- relaxation of phenylephrine contraction with L-NAME [6]: 血管の弛緩がほとんど見られなかった
- vasorelaxing action after endothelium removal [6]: 完全に消失した
- relaxation of phenylephrine contraction with indomethacin [6]: 血管の弛緩に全く影響を与えなかった
- relaxation of phenylephrine contraction with ODQ [6]: 血管の弛緩が大幅に減弱した
- Cmax at 0.25 h ([7]; at 15 min after dosing, read-out: maximum plasma concentration): 174 µM
- Tmax ([7]; read-out: time of maximum plasma concentration (converted)): 15 min
- maximum decrease of mean blood pressure [8]: 12.7 mmHg
- time from start of administration to onset of hypotensive action [8]: ~1 min

SMILES: OC[C@H]1OC(O)[C@H](O)[C@@H](O)[C@@H]1O (stereo partly shown) [グルコース]
- vasodilating action (relaxation of phenylephrine contraction) [3]: 血管拡張作用が見出せなかった

- EC50 [5, 11]: 25 µM
SMILES: N[C@@H](CCCNC1=NC(CC(O)C(O)CO)C(=O)N1)C(=O)O (stereo partly shown) [I−7, Nδ−[5−ヒドロ−5−(2,3,4−トリヒドロキシブチル)−4−イミダゾロン−2−イル]−L−オルニチン]
- eNOS serine 1177 phosphorylation after wortmannin pretreatment [1, 10]: 完全に抑制された
- enhancement of eNOS serine 1177 phosphorylation ([1]; 300 μM): eNOSセリン1177残基のリン酸化亢進作用を示した
- relaxation rate ([4]; 50 μM): 5±2%
- inhibition at 50 µM ([4]; Rattus norvegicus, 50 μM, untreated control (no wortmannin), read-out: relaxation rate): 90 ± 5%
- Akt serine 473 phosphorylation after wortmannin pretreatment [2, 10]: 完全に抑制され
- enhancement of Akt serine 473 phosphorylation ([2]; 300 μM): Aktセリン473残基のリン酸化亢進作用を示した
- relaxation of phenylephrine contraction with C-PTIO [6]: 血管の弛緩が大幅に減弱した
- relaxation of phenylephrine contraction with L-NAME [6]: 血管の弛緩がほとんど見られなかった
- vasorelaxing action after endothelium removal [6]: 完全に消失した
- relaxation of phenylephrine contraction with indomethacin [6]: 血管の弛緩に全く影響を与えなかった
- relaxation of phenylephrine contraction with ODQ [6]: 血管の弛緩が大幅に減弱した

- EC50 [5, 11]: 71 µM
SMILES: N[C@@H](CCCNC1=NC(CCO)C(=O)N1)C(=O)O (stereo partly shown) [I−3, Nδ−[5−ヒドロ−5−(2−ヒドロキシエチル)−4−イミダゾロン−2−イル]−L−オルニチン]
- enhancement of eNOS serine 1177 phosphorylation ([1]; 100〜500 μM): 濃度依存的にeNOSセリン1177残基のリン酸化亢進作用を示した
- eNOS serine 1177 phosphorylation after wortmannin pretreatment [1, 9]: 完全に抑制された
- relaxation rate ([4]; 100 μ (so in the source)): 3±3%
- inhibition at 100 µM ([4]; Rattus norvegicus, 100 μ (so in the source), untreated control (no wortmannin), read-out: relaxation rate): 62 ± 8%
- enhancement of Akt serine 473 phosphorylation ([2]; 100〜500 μM): Aktセリン473残基のリン酸化亢進作用を示した
- Akt serine 473 phosphorylation after wortmannin pretreatment [2, 9]: 完全に抑制され
- relaxation of phenylephrine contraction with C-PTIO [6]: 血管の弛緩が大幅に減弱した
- relaxation of phenylephrine contraction with L-NAME [6]: 血管の弛緩がほとんど見られなかった
- vasorelaxing action after endothelium removal [6]: 完全に消失した
- relaxation of phenylephrine contraction with indomethacin [6]: 血管の弛緩に全く影響を与えなかった
- relaxation of phenylephrine contraction with ODQ [6]: 血管の弛緩が大幅に減弱した
